Columns and labels:
Assay type in all cases: cell-based
[1] = target: T1, human D1 dopamine receptor (Homo sapiens, UniProt P21728); test: STEP D1 dopamine receptor activation assay with pCRE-d2EGFP reporter; details: 48 hours, C1-APB 1 micromolar; for Pixels per spot in STEP D1 activation experiment: HEK-293T cells transfected with CMV.D1 and pCRE-d2EGFP, GFP fluorescence, MCID image analysis
T1 construct: expressed in transfected cells; host or cells: HEK-293T
Experimental: (§1) The purpose of the experiment was to measure activation of the D1 dopamine receptor by a D1 receptor agonist, Chloro-APB (C1-APB). Activation of the D1 receptor by C1-APB could be measured by virtue of it's coupling to adenylate cyclase and subsequent generation of cyclic AMP, as indicated by the pathway shown in FIG. 3.
Three hundred nanograms of pCMV.D1 (or control vector pCMV.Neo) and 300 ng of pCRE-d2EGFP in 10 microliters were mixed with 10 microliters of transferrin-polylysine complex (1 mg/ml). After 10 minutes, 10 microliters of lipofectamine (1 mg/ml) were added and the mixture incubated for an addition 10 minutes. Spots of approximately 100 nanoliters were placed onto four different polylysine coated microscope slides, and the spots allowed to dry under ambient room conditions. […] The three slides plated with cells were grown in the presence of either C1-APB or the phosphodiesterase inhibitor IBMX or both C1-APB and IBMX.
(§2) After 48 hours, the cells were examined using fluorescence microscopy.

[2] = system: cyclic AMP responsive promoter (pCRE-d2EGFP) in HEK-293T cells; test: STEP D1 activation experiment, control vector pCMV.Neo with pCRE-d2EGFP reporter; details: HEK-293T cells transfected with control vector CMV.Neo and pCRE-d2EGFP; 48 hours; GFP fluorescence, MCID image analysis
Experimental: as §1
Three hundred nanograms of pCMV.D1 (or control vector pCMV.Neo) and 300 ng of pCRE-d2EGFP in 10 microliters were mixed with 10 microliters of transferrin-polylysine complex (1 mg/ml). After 10 minutes, 10 microliters of lipofectamine (1 mg/ml) were added and the mixture incubated for an addition 10 minutes. Spots of approximately 100 nanoliters were placed onto four different polylysine coated microscope slides, and the spots allowed to dry under ambient room conditions. HEK-293T cells were then plated onto three slides, while one slide was grown only in media containing serum. The three slides plated with cells were grown in the presence of either C1-APB or the phosphodiesterase inhibitor IBMX or both C1-APB and IBMX.
as §2

[3] = system: tetracycline responsive element; test: Transactivation assay using a tetracycline inducible system (pBi-EGFP) after STEP transfection; details: HEK TetOn cells; 10 mg/ml of doxycycline; 48 hours after plating
Experimental: To determine whether STEP transfection could be modified to generate inducible expression of a protein, the tetracycline inducible system developed by Bujard and coworkers was employed (Baron et al. (2000) Proc Natl Acad Sci USA 96:1013-1018). […] Two DNA complexes were prepared for these experiments, one containing the pBi-EGFP plasmid (Clontech) directing the expression of EGFP under the control of a tetracycline responsive element and another complex containing pEGFP-C1 plasmid DNA (Clontech) with EGFP expression under the control of the strong human cytomegalovirus early promoter. Spots for each of these complexes were applied next to each other on each of two different microscope slides and HEK TetOn cells were plated onto each slide in separate 10 cm culture dishes. Twenty-four hours after transfection, one plate was incubated in DMEM and 10% FCS while the other was incubated in the same media containing 10 mg/ml of doxycycline. Fluorescence photomicrographs were prepared 48 hours after plating of the cells. […] In the absence of doxycycline, none of the cells on the pBiEGFP spot were fluorescent while approximately 30% of the cells on the pEGFP-C1 spot were fluorescent.

human MC1R = target: T2, human MC1R (Homo sapiens, UniProt Q01726); test: Dose response of melanocortin receptor 1 agonists, pCRE-Luciferase reporter, 96 well STEP; details: increasing concentrations, 6 hours; HEK-239T cells; FIG. 8
T2 construct: expressed in transfected cells; host or cells: HEK-293T
T2 sequence (Q01726 whole entry): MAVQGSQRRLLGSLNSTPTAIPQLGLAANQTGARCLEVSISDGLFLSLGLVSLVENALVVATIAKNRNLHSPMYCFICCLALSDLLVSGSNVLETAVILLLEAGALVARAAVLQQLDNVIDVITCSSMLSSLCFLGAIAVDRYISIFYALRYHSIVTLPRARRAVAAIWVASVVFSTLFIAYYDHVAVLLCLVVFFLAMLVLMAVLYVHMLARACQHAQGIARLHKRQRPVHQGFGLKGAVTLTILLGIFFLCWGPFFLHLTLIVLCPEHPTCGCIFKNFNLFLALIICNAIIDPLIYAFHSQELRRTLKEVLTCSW
Experimental: In the following examples a polylysine coated 96 well plate was used. DNA transfection complexes were generated essentially as described in Example 1. The components a-d from Example 1 were added sequentially but without the 5 min. incubation. The DNA transfection complexes were applied by direct pipetting (complexes can also be applied by automated liquid handling systems) to the bottom of each well in a total volume of 20 μl, and the spots were allowed to dry under ambient conditions until completely dry. HEK-293T cells were prepared as in Example 1.200 μl of media containing 10^4 HEK-293T cells were added to each well. When using the expression vector pZsGreen-N1 (Clontech BD), which encodes a variant of wild-type Zoanthus sp. green fluorescent protein ZsGreen; (excitation maximum=496 nm; emission maximum=506 nm. Ref: Matz, M. V., et al. (1999) Nature Biotech. 17:969-973), the cells were visualized using fluorescent microscopy after 24 and 48 hours following transfections.
DNA complexes were formed with human MC1R cDNA (GenBank Accession No. X67594) and with either pCRE-Luciferase or the control plasmid pTal-Luciferase (lacking the CRE binding sequences). The complexes were applied to the surface of individual wells of a polylysine coated 96 well plate; after complete drying, HEK-239T cells were then added. […]

[4] = system: rat PC-12 pheochromocytoma; test: STEP transfection efficiency with different cell surface ligands in the transfection complex; details: PC-12 cells; ligand in the transfection complex; GFP fluorescence; penton protein 0.64 mg/ml
Experimental: In the following experiments, transfection complexes were formed as described in Example 1, except that in the preparation of some transfection complexes, purified penton protein was used instead of transferring the penton protein was used at a concentration of 0.64 mg/ml. Transfection complexes were thus prepared with either transferrin or penton protein. After immobilizing the complexes as described in Example 1, the cell lines rat PC-12 pheochromocytoma and HEK-293T were transfected as described in Example 1.
The results are shown in FIG. 4 as sets of images; the cell line is indicated at the top of the images, and the ligand used in the transfection complex is indicated to the right of the images. The images under each indicated cell line are either brightfield images (to the left) or fluorescence images (to the right).

T1 sequence (P21728 whole entry): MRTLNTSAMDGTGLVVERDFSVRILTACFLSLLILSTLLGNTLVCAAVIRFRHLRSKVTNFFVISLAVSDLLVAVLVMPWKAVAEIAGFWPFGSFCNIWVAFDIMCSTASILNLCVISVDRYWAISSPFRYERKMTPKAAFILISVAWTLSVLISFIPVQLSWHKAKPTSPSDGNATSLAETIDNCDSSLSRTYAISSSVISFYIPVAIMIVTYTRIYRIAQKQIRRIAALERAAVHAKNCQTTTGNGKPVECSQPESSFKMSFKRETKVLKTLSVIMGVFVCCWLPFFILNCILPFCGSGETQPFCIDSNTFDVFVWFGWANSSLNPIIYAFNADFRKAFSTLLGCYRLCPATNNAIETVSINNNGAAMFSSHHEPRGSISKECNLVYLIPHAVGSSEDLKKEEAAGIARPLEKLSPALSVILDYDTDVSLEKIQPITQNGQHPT

Pixels per spot in STEP D1 activation experiment [1]	luciferase activity, dose response curve of the MC1R (human MC1R)	Compound	Pixels per spot in STEP D1 activation experiment [2]	other results
447 + 38 pixels per spot		C=CCN1CCc2c(cc(O)c(O)c2Cl)C(c2ccccc2)C1 (stereo not drawn) [Cl-APB, Chloro-APB]	46 + 38 pixels per spot	expression of the green fluorescent protein reporter ([1]; cells expressing the D1 receptor, fluorescence microscopy): significantly greater expression
165 + 35 pixels per spot		CC(C)Cn1c(=O)n(C)c(=O)c2[nH]cnc21 [UBMX, IBMX]	65 + 32 pixels per spot	
	signal is well above background	αMSH		

More lines, now with the values behind:

Compound	Pixels per spot in STEP D1 activation experiment [1]	luciferase activity, dose response curve of the MC1R (human MC1R)	Pixels per spot in STEP D1 activation experiment [2]	other results
C[C@H]1c2cccc(O)c2C(=O)C2=C(O)[C@]3(O)C(=O)C(C(N)=O)=C(O)[C@@H](N(C)C)[C@@H]3[C@@H](O)[C@@H]21 [doxycycline]				cells on the pBi-EGFP spot with detectable GFP expression [3]: 20%
N-acetyl-[Cys^4,10,D-Phe^7]-αMSH		signal is well above background		
transferrin: ligand for a receptor which is endocytosed, used as complexing agent in the transfection complex				transfection efficiency [4]: less than 10%
